Test results as given in patent US8592456B2 (4SC Discovery GmbH, priority 2011, dated 2013).

Test system: PBMC (T cell proliferation)
Experiment: T cell proliferation assay, PHA-stimulated human PBMC (BrdU ELISA)
Format: cell-based
Conditions: human PBMC, 2 μg/ml PHA, 48 hours, BrdU; read-out: D: IC50 (Tcell proliferation)
How it was run: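 Healthy-donor human PBMC, Ficoll-isolated, seeded 1×10^5 cells/well in RPMI1640 with 10% dialyzed FCS, stimulated with 2 μg/ml PHA alongside test compound. Proliferation read after 48 hours by BrdU ELISA.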

| Compound | IC50 |
| --- | --- |
| Fc1cc(F)cc(-n2ncc(-c3onc(-c4c(F)cccc4Cl)c3Br)c2C(F)(F)F)c1 [Example B-27, 4-bromo-3-(2-chloro-6-fluorophenyl)-5-(1-(3,5-difluorophenyl)-5-(trifluoromethyl)-1H-pyrazol-4-yl)isoxazole] | 100 to 1000 nM |
| CN1CCN(C(=O)c2c(-c3c(F)cccc3Cl)noc2-c2cnn(-c3ccccc3F)c2C(F)(F)F)CC1 [Example 17, (3-(2-chloro-6-fluorophenyl)-5-(1-(2-fluorophenyl)-5-(trifluoromethyl)-1H-pyrazol-4-yl)isoxazol-4-yl)(4-methylpiperazin-1-yl)methanone] | 1000 to 10000 nM |
| CCOC(=O)c1c(-c2ccncc2F)noc1-c1cnn(-c2cccnc2)c1C(F)(F)F [Example B-17, ethyl 3-(3-fluoropyridin-4-yl)-5-(1-(pyridin-3-yl)-5-(trifluoromethyl)-1H-pyrazol-4-yl)isoxazole-4-carboxylate] | 1000 to 10000 nM |
| O=C(O)c1c(-c2ccccc2Cl)noc1-c1cnn(-c2cccc(Cl)c2)c1C(F)(F)F [Example B-42, 3-(2-chlorophenyl)-5-(1-(3-chlorophenyl)-5-(trifluoromethyl)-1H-pyrazol-4-yl)-isoxazole-4-carboxylic acid] | 1000 to 10000 nM |
| NC(=S)c1c(-c2c(F)cccc2Cl)noc1-c1cnn(-c2cccc(Cl)c2)c1C(F)(F)F [Example 125, 3-(2-chloro-6-fluorophenyl)-5-(1-(3-chlorophenyl)-5-(trifluoromethyl)-1H-pyrazol-4-yl)isoxazole-4-carbothioamide] | 1000 to 10000 nM |
| COC(=O)c1c(-c2c(F)cccc2Cl)noc1-c1cnn(-c2cccc(F)c2)c1C(F)(F)C(F)F [Example 64, methyl 3-(2-chloro-6-fluorophenyl)-5-(1-(3-fluorophenyl)-5-(1,1,2,2-tetrafluoroethyl)-1H-pyrazol-4-yl)isoxazole-4-carboxylate] | 1000 to 10000 nM |
| CNC(=O)c1c(-c2c(F)cccc2Cl)noc1-c1cnn(-c2ccc(F)cc2)c1C(F)(F)F [Example 55, 3-(2-chloro-6-fluorophenyl)-5-(1-(4-fluorophenyl)-5-(trifluoromethyl)-1H-pyrazol-4-yl)-N-methylisoxazole-4-carboxamide] | 100 to 1000 nM |
| CNC(=O)c1c(-c2c(F)cccc2Cl)noc1-c1cnn(-c2ccccc2F)c1C(F)(F)F [Example 19, 3-(2-chloro-6-fluorophenyl)-5-(1-(2-fluorophenyl)-5-(trifluoromethyl)-1H-pyrazol-4-yl)-N-methylisoxazole-4-carboxamide] | 1000 to 10000 nM |
| Fc1cccc(Cl)c1-c1noc(-c2cnn(-c3cccc(Cl)c3)c2C(F)(F)F)c1Br [Example 140, 4-bromo-3-(2-chloro-6-fluorophenyl)-5-(1-(3-chlorophenyl)-5-(trifluoromethyl)-1H-pyrazol-4-yl)isoxazole] | 10 to 100 nM |
| CCOC(=O)c1c(-c2c(F)cccc2Cl)noc1-c1cnn(-c2cccc(NC(C)=O)c2)c1C(F)(F)F [Example B-70, ethyl 5-(1-(3-acetamidophenyl)-5-(trifluoromethyl)-1H-pyrazol-4-yl)-3-(2-chloro-6-fluorophenyl)isoxazole-4-carboxylate] | 10 to 100 nM |
| O=C(c1c(-c2c(F)cccc2Cl)noc1-c1cnn(-c2cccc(F)c2)c1C(F)(F)F)N1CCOCC1 [Example 127, (3-(2-chloro-6-fluorophenyl)-5-(1-(3-fluorophenyl)-5-(trifluoromethyl)-1H-pyrazol-4-yl)isoxazol-4-yl)(morpholino)methanone] | 1000 to 10000 nM |
| COC(=O)c1c(-c2c(F)cccc2Cl)noc1-c1cnn(-c2onc(-c3ccc(Cl)cc3)c2C(=O)OC)c1C(F)(F)F [Example 131, methyl 3-(2-chloro-6-fluorophenyl)-5-{[1-(4-methoxycarbonyl-3-(4-chlorophenyl)isoxazol-5-yl)-5-trifluoromethyl-1H-pyrazol-4-yl]}-isoxazole-4-carboxylate] | 1000 to 10000 nM |
